Several values for one entry are separate records, joined by “and”; a condition that tells them apart may be missing. Equal entries are not always repeated.
How the values were obtained:
[1] = test system: CCRF-CEM; test: NCI-60 one-dose SRB screen (Leukemia); type: cell-based; conditions: Homo sapiens, single dose 10 µM, 48 h, read-out: Growth inhibition percent (GI %)
[2] = test system: HL-60(TB); test: NCI-60 one-dose SRB screen (Leukemia); type: cell-based; conditions: Homo sapiens, single dose 10 µM, 48 h, read-out: Growth inhibition percent (GI %)
[3] = test system: K-562; test: NCI-60 one-dose SRB screen (Leukemia); type: cell-based; conditions: Homo sapiens, K562, single dose 10 µM, 48 h, read-out: Growth inhibition percent (GI %)
[4] = test system: MOLT-4; test: NCI-60 one-dose SRB screen (Leukemia); type: cell-based; conditions: Homo sapiens, single dose 10 µM, 48 h, read-out: Growth inhibition percent (GI %)
[5] = test system: RPMI-8226; test: NCI-60 one-dose SRB screen (Leukemia); type: cell-based; conditions: Homo sapiens, single dose 10 µM, 48 h, read-out: Growth inhibition percent (GI %)
[6] = test system: SR; test: NCI-60 one-dose SRB screen (Leukemia); type: cell-based; conditions: Homo sapiens, single dose 10 µM, 48 h, read-out: Growth inhibition percent (GI %)
[7] = test system: A549/ATCC; test: NCI-60 one-dose SRB screen (Non-Small Cell Lung Cancer); type: cell-based; conditions: Homo sapiens, single dose 10 µM, 48 h, read-out: Growth inhibition percent (GI %)
[8] = test system: EKVX; test: as above; type: cell-based; conditions: Homo sapiens, single dose 10 µM, 48 h, read-out: Growth inhibition percent (GI %)
[9] = test system: HOP-62; test: as above; type: cell-based; conditions: Homo sapiens, single dose 10 µM, 48 h, read-out: Growth inhibition percent (GI %)
[10] = test system: HOP-92; test: as above; type: cell-based; conditions: Homo sapiens, single dose 10 µM, 48 h, read-out: Growth inhibition percent (GI %)
[11] = test system: NCI-H226; test: as above; type: cell-based; conditions: Homo sapiens, single dose 10 µM, 48 h, read-out: Growth inhibition percent (GI %)
[12] = test system: NCI-H23; test: as above; type: cell-based; conditions: Homo sapiens, single dose 10 µM, 48 h, read-out: Growth inhibition percent (GI %)
[13] = test system: NCI-H322M; test: as above; type: cell-based; conditions: Homo sapiens, single dose 10 µM, 48 h, read-out: Growth inhibition percent (GI %)
[14] = test system: NCI-H460; test: as above; type: cell-based; conditions: Homo sapiens, single dose 10 µM, 48 h, read-out: Growth inhibition percent (GI %)
[15] = test system: NCI-H522; test: as above; type: cell-based; conditions: Homo sapiens, single dose 10 µM, 48 h, read-out: Growth inhibition percent (GI %)
[16] = test system: COLO 205; test: NCI-60 one-dose SRB screen (Colon Cancer); type: cell-based; conditions: Homo sapiens, single dose 10 µM, 48 h, read-out: Growth inhibition percent (GI %)
[17] = test system: HCC-2998; test: NCI-60 one-dose SRB screen (Colon Cancer); type: cell-based; conditions: Homo sapiens, single dose 10 µM, 48 h, read-out: Growth inhibition percent (GI %)
[18] = test system: HCT-116; test: NCI-60 one-dose SRB screen (Colon Cancer); type: cell-based; conditions: Homo sapiens, single dose 10 µM, 48 h, read-out: Growth inhibition percent (GI %)
[19] = test system: HCT-15; test: NCI-60 one-dose SRB screen (Colon Cancer); type: cell-based; conditions: Homo sapiens, single dose 10 µM, 48 h, read-out: Growth inhibition percent (GI %)
[20] = test system: HT29; test: NCI-60 one-dose SRB screen (Colon Cancer); type: cell-based; conditions: Homo sapiens, HT-29, single dose 10 µM, 48 h, read-out: Growth inhibition percent (GI %)
[21] = test system: KM12; test: NCI-60 one-dose SRB screen (Colon Cancer); type: cell-based; conditions: Homo sapiens, single dose 10 µM, 48 h, read-out: Growth inhibition percent (GI %)
[22] = test system: SW-620; test: NCI-60 one-dose SRB screen (Colon Cancer); type: cell-based; conditions: Homo sapiens, single dose 10 µM, 48 h, read-out: Growth inhibition percent (GI %)
[23] = test system: SF-268; test: NCI-60 one-dose SRB screen (CNS Cancer); type: cell-based; conditions: Homo sapiens, single dose 10 µM, 48 h, read-out: Growth inhibition percent (GI %)
[24] = test system: SF-295; test: NCI-60 one-dose SRB screen (CNS Cancer); type: cell-based; conditions: Homo sapiens, single dose 10 µM, 48 h, read-out: Growth inhibition percent (GI %)
[25] = test system: SF-539; test: NCI-60 one-dose SRB screen (CNS Cancer); type: cell-based; conditions: Homo sapiens, single dose 10 µM, 48 h, read-out: Growth inhibition percent (GI %)
[26] = test system: SNB-19; test: NCI-60 one-dose SRB screen (CNS Cancer); type: cell-based; conditions: Homo sapiens, single dose 10 µM, 48 h, read-out: Growth inhibition percent (GI %)
[27] = test system: SNB-75; test: NCI-60 one-dose SRB screen (CNS Cancer); type: cell-based; conditions: Homo sapiens, single dose 10 µM, 48 h, read-out: Growth inhibition percent (GI %)
[28] = test system: U251; test: NCI-60 one-dose SRB screen (CNS Cancer); type: cell-based; conditions: Homo sapiens, U-251, single dose 10 µM, 48 h, read-out: Growth inhibition percent (GI %)
[29] = test system: M14; test: NCI-60 one-dose SRB screen (Melanoma); type: cell-based; conditions: Homo sapiens, single dose 10 µM, 48 h, read-out: Growth inhibition percent (GI %)
[30] = test system: MALME-3M; test: NCI-60 one-dose SRB screen (Melanoma); type: cell-based; conditions: Homo sapiens, single dose 10 µM, 48 h, read-out: Growth inhibition percent (GI %)
[31] = test system: SK-MEL-28; test: NCI-60 one-dose SRB screen (Melanoma); type: cell-based; conditions: Homo sapiens, single dose 10 µM, 48 h, read-out: Growth inhibition percent (GI %)
[32] = test system: SK-MEL-2; test: NCI-60 one-dose SRB screen (Melanoma); type: cell-based; conditions: Homo sapiens, single dose 10 µM, 48 h, read-out: Growth inhibition percent (GI %)
[33] = test system: SK-MEL-5; test: NCI-60 one-dose SRB screen (Melanoma); type: cell-based; conditions: Homo sapiens, single dose 10 µM, 48 h, read-out: Growth inhibition percent (GI %)
[34] = test system: UACC-257; test: NCI-60 one-dose SRB screen (Melanoma); type: cell-based; conditions: Homo sapiens, single dose 10 µM, 48 h, read-out: Growth inhibition percent (GI %)
[35] = test system: UACC-62; test: NCI-60 one-dose SRB screen (Melanoma); type: cell-based; conditions: Homo sapiens, single dose 10 µM, 48 h, read-out: Growth inhibition percent (GI %)
[36] = test system: A498; test: NCI-60 one-dose SRB screen (Renal Cancer); type: cell-based; conditions: Homo sapiens, single dose 10 µM, 48 h, read-out: Growth inhibition percent (GI %)
[37] = test system: ACHN; test: NCI-60 one-dose SRB screen (Renal Cancer); type: cell-based; conditions: Homo sapiens, single dose 10 µM, 48 h, read-out: Growth inhibition percent (GI %)
[38] = test system: CAKI-1; test: NCI-60 one-dose SRB screen (Renal Cancer); type: cell-based; conditions: Homo sapiens, single dose 10 µM, 48 h, read-out: Growth inhibition percent (GI %)
[39] = test system: RXF 393; test: NCI-60 one-dose SRB screen (Renal Cancer); type: cell-based; conditions: Homo sapiens, single dose 10 µM, 48 h, read-out: Growth inhibition percent (GI %)
[40] = test system: SN12C; test: NCI-60 one-dose SRB screen (Renal Cancer); type: cell-based; conditions: Homo sapiens, single dose 10 µM, 48 h, read-out: Growth inhibition percent (GI %)
[41] = test system: TK-10; test: NCI-60 one-dose SRB screen (Renal Cancer); type: cell-based; conditions: Homo sapiens, single dose 10 µM, 48 h, read-out: Growth inhibition percent (GI %)
[42] = test system: UO-31; test: NCI-60 one-dose SRB screen (Renal Cancer); type: cell-based; conditions: Homo sapiens, single dose 10 µM, 48 h, read-out: Growth inhibition percent (GI %)
[43] = test system: DU-145; test: NCI-60 one-dose SRB screen (Prostate Cancer); type: cell-based; conditions: Homo sapiens, single dose 10 µM, 48 h, read-out: Growth inhibition percent (GI %)
[44] = test system: PC-3; test: NCI-60 one-dose SRB screen (Prostate Cancer); type: cell-based; conditions: Homo sapiens, single dose 10 µM, 48 h, read-out: Growth inhibition percent (GI %)
[45] = target: hCA IX (Homo sapiens, UniProt Q16790); test: CA inhibitory activity, spectrophotometric p-NPA assay; type: biochemical; conditions: p-NPA substrate, pH 7.5, 25 °C, triplicate; read-out: IC50 (µM) ± SD hCA IX
[46] = target: hCA XII (Homo sapiens, UniProt O43570); test: as above; type: biochemical; conditions: p-NPA substrate, pH 7.5, 25 °C, triplicate; read-out: IC50 (µM) ± SD hCA XII
Chain of hCA XII (O43570 25-354): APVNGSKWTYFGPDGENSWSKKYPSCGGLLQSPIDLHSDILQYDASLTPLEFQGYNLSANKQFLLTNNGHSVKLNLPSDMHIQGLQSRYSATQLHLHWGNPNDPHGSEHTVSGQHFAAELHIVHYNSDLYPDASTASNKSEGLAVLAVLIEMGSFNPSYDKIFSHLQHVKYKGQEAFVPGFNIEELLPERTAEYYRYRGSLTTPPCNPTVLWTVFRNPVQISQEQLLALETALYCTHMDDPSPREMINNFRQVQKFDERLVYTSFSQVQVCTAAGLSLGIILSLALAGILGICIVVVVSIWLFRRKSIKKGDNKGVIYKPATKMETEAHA
Description: The software used to calculate CA IC50 along with statistical analysis of the results is GraphPad Prism 9.00. Results were estimated by using one-way ANOVA and the Bonferroni’s multiple comparisons posthoc test was performed (P < 0.05) [46]
Carbonic anhydrase inhibitory activity:
The spectrophotometric assay was conducted in HEPES-Tris buffer, NaCl of pH 7.5 (20mM) at 25◦C. Each inhibitory well-consisted of 50 μL of assay buffer solution, 20 μL of hCA enzyme solution (20 ng/μL in Assay Buffer), and 50 μL of test compound in HPLC grade DMSO (maintain 10% of the final concentration). The mixture solution was
Substrate p-nitrophenyl acetate (p-NPA) (0.7mM) was prepared in HPLC grade methanol and the reaction was started by adding 20 μL to a well in a 96-well-plate. The amount of product formed was measured for 30 min continuously at 1 min intervals at 400 nm in a 96-well-plate using xMARK microplate spectrophotometer, Bio-Rad (USA). The activity of the controlled compound was taken as 100%. All experiments were carried out in triplicates of each used concentration, and results are represented as a

Structure (SMILES): NS(=O)(=O)c1ccc(-n2cc(C(=O)OCC(=O)Nc3nnc(S(N)(=O)=O)s3)c(-c3ccccc3)n2)cc1 [Compound 6a, 2-Oxo-2-[(5-sulfamoyl-1,3,4-thiadiazol-2-yl)amino] ethyl 3-phenyl-1-(4-sulfamoylphenyl)-1H-pyrazole-4-carboxylate]
- inhibition at 10 µM [1]: < 5%
- inhibition at 10 µM [2]: < 5%
- inhibition at 10 µM [3]: < 5%
- inhibition at 10 µM [4]: < 5%
- inhibition at 10 µM [5]: < 5%
- inhibition at 10 µM [6]: 17%
- inhibition at 10 µM [7]: < 5%
- inhibition at 10 µM [8]: 9.86%
- inhibition at 10 µM [9]: < 5%
- inhibition at 10 µM [10]: < 5%
- inhibition at 10 µM [11]: 16.2%
- inhibition at 10 µM [12]: < 5%
- inhibition at 10 µM [13]: < 5%
- inhibition at 10 µM [14]: < 5%
- inhibition at 10 µM [15]: 13.3%
- inhibition at 10 µM [16]: < 5%
- inhibition at 10 µM [17]: < 5%
- inhibition at 10 µM [18]: < 5%
- inhibition at 10 µM [19]: < 5%
- inhibition at 10 µM [20]: < 5%
- inhibition at 10 µM [21]: < 5%
- inhibition at 10 µM [22]: < 5%
- inhibition at 10 µM [23]: < 5%
- inhibition at 10 µM [24]: < 5%
- inhibition at 10 µM [25]: < 5%
- inhibition at 10 µM [26]: 6.91%
- inhibition at 10 µM [27]: 5.39%
- inhibition at 10 µM [28]: < 5%
- inhibition at 10 µM [29]: < 5%
- inhibition at 10 µM [30]: < 5%
- inhibition at 10 µM [31]: < 5%
- inhibition at 10 µM [32]: < 5%
- inhibition at 10 µM [33]: < 5%
- inhibition at 10 µM [34]: < 5%
- inhibition at 10 µM [35]: 17.7%
- inhibition at 10 µM [36]: < 5%
- inhibition at 10 µM [37]: 6.63%
- inhibition at 10 µM [38]: 7.52%
- inhibition at 10 µM [39]: < 5%
- inhibition at 10 µM [40]: < 5%
- inhibition at 10 µM [41]: < 5%
- inhibition at 10 µM [42]: 12.6%
- inhibition at 10 µM [43]: < 5%
- inhibition at 10 µM [44]: < 5%
- IC50 [45]: 0.591 ± 0.028 µM
- IC50 [46]: 0.35 µM and 0.358 µM

Structure (SMILES): Cc1ccc(-c2nn(-c3ccc(S(N)(=O)=O)cc3)cc2-c2n[nH]c(=S)[nH]2)cc1 [Compound 11, 4-[4-(5-Mercapto-1H-1,2,4-triazol-3-yl)-3-(p-tolyl)-1H-pyrazol-1-yl] benzenesulfonamide]
- inhibition at 10 µM [1]: < 5%
- inhibition at 10 µM [2]: < 5%
- inhibition at 10 µM [3]: < 5%
- inhibition at 10 µM [4]: 21.1%
- inhibition at 10 µM [5]: < 5%
- inhibition at 10 µM [6]: 15.8%
- inhibition at 10 µM [7]: < 5%
- inhibition at 10 µM [8]: < 5%
- inhibition at 10 µM [9]: < 5%
- inhibition at 10 µM [10]: < 5%
- inhibition at 10 µM [11]: < 5%
- inhibition at 10 µM [12]: < 5%
- inhibition at 10 µM [13]: < 5%
- inhibition at 10 µM [14]: < 5%
- inhibition at 10 µM [15]: < 5%
- inhibition at 10 µM [16]: < 5%
- inhibition at 10 µM [17]: < 5%
- inhibition at 10 µM [18]: < 5%
- inhibition at 10 µM [19]: < 5%
- inhibition at 10 µM [21]: < 5%
- inhibition at 10 µM [22]: < 5%
- inhibition at 10 µM [23]: 9.56%
- inhibition at 10 µM [24]: 9.95%
- inhibition at 10 µM [25]: 8.18%
- inhibition at 10 µM [26]: 13%
- inhibition at 10 µM [27]: 23.9%
- inhibition at 10 µM [28]: 5.33%
- inhibition at 10 µM [29]: < 5%
- inhibition at 10 µM [30]: < 5%
- inhibition at 10 µM [31]: < 5%
- inhibition at 10 µM [32]: < 5%
- inhibition at 10 µM [33]: < 5%
- inhibition at 10 µM [34]: < 5%
- inhibition at 10 µM [35]: 12.9%
- inhibition at 10 µM [36]: < 5%
- inhibition at 10 µM [37]: < 5%
- inhibition at 10 µM [38]: 11.4%
- inhibition at 10 µM [39]: 10.1%
- inhibition at 10 µM [40]: 7.65%
- inhibition at 10 µM [41]: < 5%
- inhibition at 10 µM [42]: < 5%
- inhibition at 10 µM [43]: < 5%
- inhibition at 10 µM [44]: < 5%
- IC50 [45]: 0.24 ± 0.011 µM
- IC50 [46]: 0.33 µM and 0.332 µM

— publication PMC12454493, “Insight on novel sulfamoylphenyl pyrazole derivatives as anticancer carbonic anhydrase inhibitors” (Molecular Diversity, 2024)
